The numbers were not newly measured in patent US20230190754A1, “Therapeutic combinations for the treatment of Progressive Fibrosing interstitial lung diseases” (Boehringer Ingelheim International GmbH, priority 2021, published 2023), which cites them from elsewhere.

In this data set the test system is PDE4 subtypes, A-D. To be noted: cited from earlier work.
For `N#Cc1ccc(Oc2ccc3c(c2)COB3O)cc1` [crisaborole], the “Preferential enzymatic inhibition among the PDE4 subtypes (in words)” value was “None of these show any preferential enzymatic inhibition”.
Take `O=C(Nc1c(Cl)cncc1Cl)c1ccc(OC(F)F)c(OCC2CC2)c1` [roflumilast]: the “Preferential enzymatic inhibition among the PDE4 subtypes (in words)” value is “None of these show any preferential enzymatic inhibition”.
For the compound `CCOc1cc([C@@H](CS(C)(=O)=O)N2C(=O)c3cccc(NC(C)=O)c3C2=O)ccc1OC` [apremilast], the “Preferential enzymatic inhibition among the PDE4 subtypes (in words)” value is “None of these show any preferential enzymatic inhibition”.
